{
  "source": "ChEMBL document CHEMBL5634117",
  "about": "(Eur J Med Chem, 2023)",
  "key": {"K562 [1]": {"system": "K562", "test": "Induction of cell cycle arrest in human K562 cells assessed as accumulation of cells at G2/M phase at 1.28 uM measured after 24 hrs by PI staining based flow cytometry analysis (reference value: 29.092%)", "format": "functional"}, "K562 [2]": {"system": "K562", "test": "Induction of cell cycle arrest in human K562 cells assessed as accumulation of cells at G0/G1 phase at 1.28 uM measured after 24 hrs by PI staining based flow cytometry analysis (reference value: 46.71%)", "format": "functional"}, "K562 [3]": {"system": "K562", "test": "Induction of cell cycle arrest in human K562 cells assessed as accumulation of cells at G0/G1 phase at 2.56 uM measured after 24 hrs by PI staining based flow cytometry analysis (reference value: 46.71%)", "format": "functional"}, "K562 [4]": {"system": "K562", "test": "Induction of cell cycle arrest in human K562 cells assessed as accumulation of cells at SubG1 phase at 0.64 uM measured after 24 hrs by PI staining based flow cytometry analysis (reference value: 2.48%)", "format": "functional"}, "K562 [5]": {"system": "K562", "test": "Induction of cell cycle arrest in human K562 cells assessed as accumulation of cells at SubG1 phase at 1.28 uM measured after 24 hrs by PI staining based flow cytometry analysis (reference value: 2.48%)", "format": "functional"}, "K562 [6]": {"system": "K562", "test": "Induction of cell cycle arrest in human K562 cells assessed as accumulation of cells at SubG1 phase at 2.56 uM measured after 24 hrs by PI staining based flow cytometry analysis (reference value: 2.48%)", "format": "functional"}, "K562 [7]": {"system": "K562", "test": "Induction of cell cycle arrest in human K562 cells assessed as accumulation of cells at G2/M phase at 1.25 uM measured after 24 hrs by PI staining based flow cytometry analysis (reference value: 29.44%)", "format": "functional"}, "K562 [8]": {"system": "K562", "test": "Induction of cell cycle arrest in human K562 cells assessed as accumulation of cells at G2/M phase at 5 uM measured after 24 hrs by PI staining based flow cytometry analysis (reference value: 29.44%)", "format": "functional"}, "K562 [9]": {"system": "K562", "test": "Induction of cell cycle arrest in human K562 cells assessed as accumulation of cells at S phase at 1.25 uM measured after 24 hrs by PI staining based flow cytometry analysis (reference value: 20.42%)", "format": "functional"}, "K562 [10]": {"system": "K562", "test": "Induction of cell cycle arrest in human K562 cells assessed as accumulation of cells at S phase at 2.5 uM measured after 24 hrs by PI staining based flow cytometry analysis (reference value: 20.42%)", "format": "functional"}, "K562 [11]": {"system": "K562", "test": "Induction of cell cycle arrest in human K562 cells assessed as accumulation of cells at S phase at 5 uM measured after 24 hrs by PI staining based flow cytometry analysis (reference value: 20.42%)", "format": "functional"}, "K562 [12]": {"system": "K562", "test": "Induction of cell cycle arrest in human K562 cells assessed as accumulation of cells at G0/G1 phase at 5 uM measured after 24 hrs by PI staining based flow cytometry analysis (reference value: 46.67%)", "format": "functional"}, "K562 [13]": {"system": "K562", "test": "Induction of apoptosis in human K562 cells assessed as early apoptotic cells at 0.64 uM incubated for 24 hrs by annexinV and propidium iodide staining based flow cytometry analysis (reference value: 0.42%)", "format": "functional"}, "K562 [14]": {"system": "K562", "test": "Induction of apoptosis in human K562 cells assessed as early apoptotic cells at 1.28 uM incubated for 24 hrs by annexinV and propidium iodide staining based flow cytometry analysis (reference value: 0.42%)", "format": "functional"}, "K562 [15]": {"system": "K562", "test": "Induction of apoptosis in human K562 cells assessed as late apoptotic cells at 0.64 uM incubated for 24 hrs by annexinV and propidium iodide staining based flow cytometry analysis (reference value: 1.34%)", "format": "functional"}, "K562 [16]": {"system": "K562", "test": "Induction of apoptosis in human K562 cells assessed as late apoptotic cells at 1.28 uM incubated for 24 hrs by annexinV and propidium iodide staining based flow cytometry analysis (reference value: 1.34%)", "format": "functional"}, "K562 [17]": {"system": "K562", "test": "Induction of apoptosis in human K562 cells assessed as late apoptotic cells at 1.25 uM incubated for 24 hrs by annexinV and propidium iodide staining based flow cytometry analysis (reference value: 1.34%)", "format": "functional"}, "K562 [18]": {"system": "K562", "test": "Induction of apoptosis in human K562 cells assessed as late apoptotic cells at 2.5 uM incubated for 24 hrs by annexinV and propidium iodide staining based flow cytometry analysis (reference value: 1.34%)", "format": "functional"}, "K562 [19]": {"system": "K562", "test": "Induction of autophagy in human K562 cells assessed as increase in beclin-1 level at 1.28 to 2.56 uM measured after 24 hrs by Western blotting analysis", "format": "functional, cell-based", "details": "dose 1.28-2.56 µM"}, "[20]": {"test": "Cytotoxicity against African green monkey Vero cells assessed as decrease in number of viable cells at 100 uM measured after 48 hrs by SRB assay relative to control", "format": "toxicity, cell-based", "details": "chlorocebus sabaeus"}, "K562 [21]": {"system": "K562", "test": "Induction of cell cycle arrest in human K562 cells assessed as accumulation of cells at S phase at 0.64 uM measured after 24 hrs by PI staining based flow cytometry analysis (reference value: 24.75%)", "format": "functional"}, "K562 [22]": {"system": "K562", "test": "Induction of cell cycle arrest in human K562 cells assessed as accumulation of cells at G0/G1 phase at 0.64 uM measured after 24 hrs by PI staining based flow cytometry analysis (reference value: 46.72%)", "format": "functional"}, "K562 [23]": {"system": "K562", "test": "Induction of cell cycle arrest in human K562 cells assessed as accumulation of cells at G0/G1 phase at 1.28 uM measured after 24 hrs by PI staining based flow cytometry analysis (reference value: 46.72%)", "format": "functional"}, "K562 [24]": {"system": "K562", "test": "Induction of cell cycle arrest in human K562 cells assessed as accumulation of cells at SubG1 phase at 0.64 uM measured after 24 hrs by PI staining based flow cytometry analysis (reference value: 2.21%)", "format": "functional"}, "K562 [25]": {"system": "K562", "test": "Induction of cell cycle arrest in human K562 cells assessed as accumulation of cells at SubG1 phase at 1.28 uM measured after 24 hrs by PI staining based flow cytometry analysis (reference value: 2.21%)", "format": "functional"}, "K562 [26]": {"system": "K562", "test": "Induction of cell cycle arrest in human K562 cells assessed as accumulation of cells at SubG1 phase at 2.56 uM measured after 24 hrs by PI staining based flow cytometry analysis (reference value: 2.21%)", "format": "functional"}, "K562 [27]": {"system": "K562", "test": "Induction of apoptosis in human K562 cells assessed as early apoptotic cells at 1.28 uM incubated for 24 hrs by annexinV and propidium iodide staining based flow cytometry analysis (reference value: 1.17%)", "format": "functional"}, "K562 [28]": {"system": "K562", "test": "Induction of apoptosis in human K562 cells assessed as early apoptotic cells at 2.56 uM incubated for 24 hrs by annexinV and propidium iodide staining based flow cytometry analysis (reference value: 1.17%)", "format": "functional"}, "K562 [29]": {"system": "K562", "test": "Induction of apoptosis in human K562 cells assessed as late apoptotic cells at 0.64 uM incubated for 24 hrs by annexinV and propidium iodide staining based flow cytometry analysis (reference value: 0.82%)", "format": "functional"}, "K562 [30]": {"system": "K562", "test": "Induction of apoptosis in human K562 cells assessed as late apoptotic cells at 1.28 uM incubated for 24 hrs by annexinV and propidium iodide staining based flow cytometry analysis (reference value: 0.82%)", "format": "functional"}, "K562 [31]": {"system": "K562", "test": "Induction of apoptosis in human K562 cells assessed as late apoptotic cells at 2.56 uM incubated for 24 hrs by annexinV and propidium iodide staining based flow cytometry analysis (reference value: 0.82%)", "format": "functional"}, "K562 [32]": {"system": "K562", "test": "Induction of autophagy in human K562 cells assessed as increase in beclin-1 level at 2.56 uM measured after 24 hrs by Western blotting analysis", "format": "functional, cell-based"}},
  "note": "Activity calls are given as the source filed them. The calls are words filed in the database; no cut-off is given here.",
  "data": [
    {"smiles": "O=C1c2ccccc2-c2n[nH]c3cccc1c23", "values": [
      {"measurement": "Activity", "setting": "K562 [1]", "result": 47.55, "unit": "%"},
      {"measurement": "Activity", "setting": "K562 [2]", "result": 28.15, "unit": "%"},
      {"measurement": "Activity", "setting": "K562 [3]", "result": 37.63, "unit": "%"},
      {"measurement": "Activity", "setting": "K562 [4]", "result": 4.68, "unit": "%"},
      {"measurement": "Activity", "setting": "K562 [5]", "result": 7.26, "unit": "%"},
      {"measurement": "Activity", "setting": "K562 [6]", "result": 2.85, "unit": "%"},
      {"measurement": "Activity", "setting": "K562 [7]", "result": 41.64, "unit": "%"},
      {"measurement": "Activity", "setting": "K562 [8]", "result": 47.08, "unit": "%"},
      {"measurement": "Activity", "setting": "K562 [9]", "result": 19.52, "unit": "%"},
      {"measurement": "Activity", "setting": "K562 [10]", "result": 19.27, "unit": "%"},
      {"measurement": "Activity", "setting": "K562 [11]", "result": 20.04, "unit": "%"},
      {"measurement": "Activity", "setting": "K562 [12]", "result": 28.76, "unit": "%"},
      {"measurement": "Activity", "setting": "K562 [13]", "result": 1.59, "unit": "%"},
      {"measurement": "Activity", "setting": "K562 [14]", "result": 0.66, "unit": "%"},
      {"measurement": "Activity", "setting": "K562 [15]", "result": 1.14, "unit": "%"},
      {"measurement": "Activity", "setting": "K562 [16]", "result": 1.25, "unit": "%"},
      {"measurement": "Activity", "setting": "K562 [17]", "result": 1.47, "unit": "%"},
      {"measurement": "Activity", "setting": "K562 [18]", "result": 3.86, "unit": "%"},
      {"measurement": "Activity", "setting": "K562 [19]", "result": "Active"}
    ]},
    {"smiles": "CC(C)(C)n1cc(-c2ccnc(NCCCNS(=O)(=O)c3ccc(Cl)cc3)c2)c(-c2cccc(O)c2)n1", "values": [
      {"measurement": "Activity", "setting": "[20]", "result": 27, "unit": "%"},
      {"measurement": "Activity", "setting": "K562 [21]", "result": 30.99, "unit": "%"},
      {"measurement": "Activity", "setting": "K562 [22]", "result": 25.21, "unit": "%"},
      {"measurement": "Activity", "setting": "K562 [23]", "result": 7.27, "unit": "%"},
      {"measurement": "Activity", "setting": "K562 [24]", "result": 2.16, "unit": "%"},
      {"measurement": "Activity", "setting": "K562 [25]", "result": 0.23, "unit": "%"},
      {"measurement": "Activity", "setting": "K562 [26]", "result": 0.07, "unit": "%"},
      {"measurement": "Activity", "setting": "K562 [27]", "result": 1.94, "unit": "%"},
      {"measurement": "Activity", "setting": "K562 [28]", "result": 2.14, "unit": "%"},
      {"measurement": "Activity", "setting": "K562 [29]", "result": 0.48, "unit": "%"},
      {"measurement": "Activity", "setting": "K562 [30]", "result": 0.56, "unit": "%"},
      {"measurement": "Activity", "setting": "K562 [31]", "result": 0.37, "unit": "%"},
      {"measurement": "Activity", "setting": "K562 [32]", "result": "inactive"}
    ]}
  ]
}
